Laboratory results taken from ChEMBL document CHEMBL1124295, “Synthesis and oral antiallergic activity of carboxylic acids derived from imidazo[2,1-c][1,4]benzoxazines, imidazo[1,2-a]quinolines, imidazo[1,2-a]quinoxalines, imidazo[1,2-a]quinoxalinones, pyrrolo[1,2-a]quinoxalinones, pyrrolo[2,3-a]quinoxalinones, and imidazo[2,1-b]benzothiazoles” (1988).
Active and inactive are the calls of the source. No cut-off for these calls is given here.

Key:
Rattus norvegicus [1] = experiment: Inhibition of the IgE-mediated passive cutaneous anaphylaxis (PCA) reaction in rat after oral administration; NA means inactive at 1 and 10 mg/Kg; assay type: functional, organism-based
Rattus norvegicus [2] = experiment: Inhibition of the IgE-mediated passive cutaneous anaphylaxis (PCA) reaction in rat after intravenous administration; Range 0.43-0.74; assay type: functional
Rattus norvegicus [3] = experiment: Inhibition of the IgE-mediated passive cutaneous anaphylaxis (PCA) reaction in rat after oral administration; Range 0.182-1.56; assay type: functional
Rattus norvegicus [4] = experiment: Inhibition of the IgE-mediated passive cutaneous anaphylaxis (PCA) reaction in rat after oral administration; Range 2.71-7.46; assay type: functional
Rattus norvegicus [5] = experiment: Inhibition of the IgE-mediated passive cutaneous anaphylaxis (PCA) reaction in rat after intravenous administration; Range 1.73-30.03; assay type: functional
Rattus norvegicus [6] = experiment: Inhibition of the IgE-mediated passive cutaneous anaphylaxis (PCA) reaction in rat after intravenous administration; Range 0.08-1.71; assay type: functional
Rattus norvegicus [7] = experiment: Inhibition of the IgE-mediated passive cutaneous anaphylaxis (PCA) reaction in rat after oral administration; Range 0.21-7.6; assay type: functional
Rattus norvegicus [8] = experiment: Inhibition of the IgE-mediated passive cutaneous anaphylaxis (PCA) reaction in rat after intravenous administration; Range 2.22-3.63; assay type: functional
Rattus norvegicus [9] = experiment: Inhibition of the IgE-mediated passive cutaneous anaphylaxis (PCA) reaction in rat after oral administration; Range 2.47-3.45; assay type: functional
Rattus norvegicus [10] = experiment: Inhibition of the IgE-mediated passive cutaneous anaphylaxis (PCA) reaction in rat after intravenous administration; Range 0.025-0.11; assay type: functional
Rattus norvegicus [11] = experiment: Inhibition of the IgE-mediated passive cutaneous anaphylaxis (PCA) reaction in rat after oral administration; Range 0.51-7.81; assay type: functional
Rattus norvegicus [12] = experiment: Inhibition of the IgE-mediated passive cutaneous anaphylaxis (PCA) reaction in rat after intravenous administration; Range 1.07-3.93; assay type: functional
Rattus norvegicus [13] = experiment: Inhibition of the IgE-mediated passive cutaneous anaphylaxis (PCA) reaction in rat after intravenous administration; Range 0.0103-0.0214; assay type: functional
Rattus norvegicus [14] = experiment: Inhibition of the IgE-mediated passive cutaneous anaphylaxis (PCA) reaction in rat after intravenous administration; Range 0.22-0.59; assay type: functional
Rattus norvegicus [15] = experiment: Inhibition of the IgE-mediated passive cutaneous anaphylaxis (PCA) reaction in rat after oral administration; Range 0.06-0.199; assay type: functional
Rattus norvegicus [16] = experiment: Inhibition of the IgE-mediated passive cutaneous anaphylaxis (PCA) reaction in rat after intravenous administration; Range 0.013-0.023; assay type: functional
Rattus norvegicus [17] = experiment: Inhibition of the IgE-mediated passive cutaneous anaphylaxis (PCA) reaction in rat after oral administration; Range 0.37-0.65; assay type: functional
Rattus norvegicus [18] = experiment: Inhibition of the IgE-mediated passive cutaneous anaphylaxis (PCA) reaction in rat after intravenous administration; Range 1.31-4.63; assay type: functional
Rattus norvegicus [19] = experiment: Inhibition of the IgE-mediated passive cutaneous anaphylaxis (PCA) reaction in rat after oral administration at concentration of 10 mg/Kg of compound; assay type: functional
Rattus norvegicus [20] = experiment: Inhibition of the IgE-mediated passive cutaneous anaphylaxis (PCA) reaction in rat after intravenous administration; Range 2.22-5.31; assay type: functional
Rattus norvegicus [21] = experiment: Inhibition of the IgE-mediated passive cutaneous anaphylaxis (PCA) reaction in rat after oral administration; Range 12.3-33.8; assay type: functional
Rattus norvegicus [22] = experiment: Inhibition of the IgE-mediated passive cutaneous anaphylaxis (PCA) reaction in rat after intravenous administration; Range 0.043-0.12; assay type: functional
Rattus norvegicus [23] = experiment: Inhibition of the IgE-mediated passive cutaneous anaphylaxis (PCA) reaction in rat after intravenous administration; Range 0.12-1.07; assay type: functional
Rattus norvegicus [24] = experiment: Inhibition of the IgE-mediated passive cutaneous anaphylaxis (PCA) reaction in rat after intravenous administration; Range 0.072-0.41; assay type: functional

SMILES: Nc1nnnn1C(=O)c1cn2c(n1)COc1ccccc1-2
- ED50 (Rattus norvegicus [1]): inactive
- ED50 (Rattus norvegicus [2]): 0.58 mg/kg

SMILES: CCn1c(=O)c2cc(-c3nn[nH]n3)cn2c2ccccc21
- ED50 (Rattus norvegicus [3]): 0.44 mg/kg

SMILES: O=Cc1cn2c(n1)COc1ccccc1-2
- ED50 (Rattus norvegicus [4]): 4.27 mg/kg
- ED50 (Rattus norvegicus [5]): 4.79 mg/kg

SMILES: O=C(O)c1cc2c(O)nc3ccccc3n2n1
- ED50 (Rattus norvegicus [6]): 0.33 mg/kg

SMILES: O=Cc1cn2c(cc(Cl)c3ccc(Cl)cc32)n1
- ED50 (Rattus norvegicus [7]): 0.5 mg/kg

SMILES: O=C(O)c1cn2c(n1)COc1ccccc1-2
- ED50 (Rattus norvegicus [8]): 2.89 mg/kg
- ED50 (Rattus norvegicus [9]): 3.2 mg/kg

SMILES: CS(=O)(=O)c1cc2nc(C(=O)O)cn2c2ccccc12
- ED50 (Rattus norvegicus [10]): 0.047 mg/kg
- ED50 (Rattus norvegicus [11]): 1.64 mg/kg

SMILES: O=C(O)c1cn2c(n1)N=S(=O)(c1ccccc1)c1ccccc1-2 (stereo not given)
- ED50 (Rattus norvegicus [12]): 1.92 mg/kg

SMILES: O=C(O)C(=O)Nc1ccc2c(c1)-n1cc(C(=O)O)nc1CO2
- ED50 (Rattus norvegicus [13]): 0.0172 mg/kg

SMILES: C[S+](=N)([O-])c1cc2nc(C(=O)O)cn2c2ccccc12 (stereo not given)
- ED50 (Rattus norvegicus [14]): 0.35 mg/kg

SMILES: CCCCn1c(=O)c2cc(C(=O)O)cn2c2ccc(Cl)cc21
- ED50 (Rattus norvegicus [15]): 0.114 mg/kg
- ED50 (Rattus norvegicus [16]): 0.019 mg/kg

SMILES: CCOC(=O)C(=O)Nc1ccc2c(c1)-n1cc(C(=O)OC)nc1CO2
- ED50 (Rattus norvegicus [17]): 0.5 mg/kg

SMILES: O=C(O)c1cn2c(n1)COc1ccc([N+](=O)[O-])cc1-2
- ED50 (Rattus norvegicus [18]): 2.22 mg/kg

SMILES: O/N=C\c1cn2c(n1)COc1ccccc1-2
- Inhibition (Rattus norvegicus [19]): 42%

SMILES: COc1ccc2ccc3nc(CN)cn3c2c1.Cl.Cl
- ED50 (Rattus norvegicus [20]): 3.39 mg/kg

SMILES: O=C(O)c1cc2c(=O)n(-c3ccccc3)c3ccccc3n2c1
- ED50 (Rattus norvegicus [21]): 18.9 mg/kg

SMILES: C[S+]([O-])c1ccc2ccc3nc(C(=O)O)cn3c2c1 (stereo not given)
- ED50 (Rattus norvegicus [22]): 0.076 mg/kg

SMILES: O=C(Nc1nn[nH]n1)c1cn2c(n1)COc1ccccc1-2
- ED50 (Rattus norvegicus [23]): 0.33 mg/kg
- ED50 (Rattus norvegicus [1]): inactive

SMILES: COc1cccc2sc3nc(C(=O)O)cn3c12
- ED50 (Rattus norvegicus [24]): 0.16 mg/kg
